# Entries after “also recorded” stand apart in the source; their conditions may differ. Read-outs that look alike come from different tables or passages of the source.
# Legend:
# [1] = system: T1, Notch-1 TM/JM (residues 1721–1771); assay: TROSY NMR titration of Notch-1 TM/JM by verteporfin; type: binding
# T1 construct: flanked by its juxtamembrane segments (residues 1721–1771, “Notch-1 TM/JM”); made in house; host or cells: E. coli BL21DE3 Star, pET21b
# Protocol: A Bruker Avance III 600 MHz NMR spectrometer equipped with a cryoprobe (CPTCI) and automated sample changer (SampleJet) was used to collect NMR spectra. Sample details are described above. For high-throughput screening data collection, the ^15N-^1H BEST-TROSY (b_trosy3gpph.2) experiment with 64 scans for each of 96 increments and a relaxation delay of 200 ms was run at 318 K for a total data acquisition time of 35 min per sample. To achieve enhanced signal-to-noise ratio, follow-up titrations and control experiments were conducted using the BEST-TROSY pulse program with 200 scans per 96 increments at 318 K, for a total data acquisition time of 110 min per sample. Data were processed using Bruker Topspin 3.6 using a Gaussian window function with a line broadening of -10 and a Gaussian max of 0.1 in both dimensions. NMR data were then further processed and analyzed using NMR-FAM SPARKY, plotted using GraphPad Prism 9, and prepared for publication figures using Affinity Designer.
# 2D ^15 N-^1H HSQC NMR data used to calculate dissociations constant (KD) values by first normalizing 2D data using the established formula ([78]) (Equation 1):(1) δ(1H,15N)=√(1/2[δ2H+.14∗δ2N]) Where δ(1H,15N) is the square root of linear chemical shifts in each respective dimension, δH and δN with the Nitrogen normalization factor of 0.14.
# C99 [2] = system: T2, C99; assay: Native ion mobility–mass spectrometry of C99–verteporfin mixtures; parameters: species or system human
# T2 construct: the transmembrane 99 residue C-terminal (C99) domain; His tag (either the C-terminal hexa-His that is kept, or the N-terminal His of C99-NT2 removed by thrombin); made in house; host or cells: E. coli BL21DE3
# Description: IM-MS data were collected using a Synapt G2 HDMS IM-Q-ToF mass spectrometer (Waters), with a direct infusion nESI source set to positive ion mode. The instrument settings were tuned to generate intact C99–verteporfin complex ions while completely dissociating them from detergent LMPG micelles, including appropriately tuned settings for the sampling cone 80 V, trap cell accelerating potential 80 V, and the transfer cell accelerating potential 70 V. The trapping cell wave velocity and height were 116 m/s and 0.1 V, respectively. The IMS wave velocity and height were 250 m/s and 15 V, respectively. The transfer cell wave velocity and height were 300 m/s and 10 V. Prior to analysis, C99 in LMPG micelles at a protein concentration of 20 μM C99 and 100X CMC LMPG or DDMB samples were prepared by incubating 20 μM C99 with 100X CMC LMPG for 30 min, then titrating in DMSO or Verteporfin and incubating in the dark overnight. Verteporfin-binding buffer conditions were 200 mM Ammonium Acetate at pH 4.5.
# C99 [3] = system: T3, C99; assay: Glutaraldehyde cross-linking of verteporfin–C99 mixtures; parameters: species or system human; details: LMPG micelles, versus DMSO control, n=3
# T3 construct: the transmembrane 99 residue C-terminal (C99) domain; made in house; host or cells: E. coli BL21DE3, pET21b
# Protocol: C-terminally His-tagged C99 was expressed from E. coli as mentioned above, and the sample was eluted into a buffer containing 0.1% w/v LMPG, 350 mM Imidazole, 100 mM NaCl, pH 7.8. The protein sample was buffer swapped into GA X-linking buffer containing 0.25% w/v LMPG, 250 mM imidazole, 100 mM NaCl, pH 7.8, and the protein was concentrated to a stock of 300 μM C99. Protein stocks were either used right away or flash frozen in LN2 and stored at −80 °C until further use.
# On the day of the experiment, fresh glutaraldehyde (from 25% w/v ampoule) was used to prepare serial dilutions and stored on ice. Reaction volumes were set at 50 μl, containing 30 μM C99, 25 mM Imidazole, 100 mM NaCl, pH 7.8, and 2.5% w/v LMPG. For a typical GA reaction setup, the following components were added to Eppendorf tubes in this specific order: 5 μl of 300 μM C99 was added to the bottom of the tube, followed by 6 μl of 20% w/w LMPG solution, then the sample was diluted to 50 μl using 39 μl of GA X-linking buffer. The sample was mixed by vortex and allowed to sit for at least 30 min. After incubation, 1 μl of Verteporfin stock (typically 10 mM in DMSO) was added to the mixture, vortexed, and allowed to incubate for at least another 30 min in the dark. […] Then, SDS loading buffer was added directly to the reaction tubes, and the samples were visualized using SDS-PAGE and analyzed by densitometry using ImageJ. […]
# [4] = target: T4, γ-secretase cleavage of C100-Flag (C99) (Homo sapiens, UniProt P05067); assay: γ-Secretase assay, C100-FLAG cleavage, AICD by anti-Flag Western blot; type: biochemical
# T4 construct: C100 is C99 with an added N-terminal Met residue; made in house
# T4 sequence (P05067 672-770 limits assumed): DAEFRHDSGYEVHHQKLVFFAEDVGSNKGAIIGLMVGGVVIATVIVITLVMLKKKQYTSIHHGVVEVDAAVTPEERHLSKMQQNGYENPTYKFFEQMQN
# Protocol: The γ-secretase-dependent proteolysis assays with both substrates (C100-FLAG and HexaHis Notch 1 JM/TM) were performed in a weak zwitterionic detergent (CHAPSO, 3-[(3- cholamidopropyl)dimethylammonio]-2-hydroxy-1-propanesulfonate) solubilized conditions ([79], [80]). C100 is C99 with an added N-terminal Met residue. […] Proteolytic reactions were initiated by adding purified substrates (either C100-FLAG(79) or HexaHis-Notch 1 JM/TM(77)) and incubating at 37 °C (16 h for C100Flag and 4 h for HexaHis-Notch 1 JM/TM). Reactions were quenched with SDS, and the cleaved intracellular domain products (AICD-FLAG released from C100-FLAG or truncated intracellular domain (NICD) released from the proteolysis of Hexa-His Notch 1 JM/TM) were visualized by Western blot using specific primary antibodies, anti-FLAG antibody for FLAG-tagged AICD, and neoepitope-specific anti-V1744 antibody for NICD ([80], [83], [84]).
substance,measurement,setting,value
verteporfin,binding to Notch-1 TM/JM,[1]; D6PC/DMPC bicelles,only minor spectral changes at very high concentrations; also recorded: does not bind
same,binding to Notch-1 TM/JM,[1]; DDMB micelles,little change in the spectrum of Notch-1 until a concentration of 300 μM; also recorded: does not bind
same,binding to Notch-1 TM/JM,"[1]; LMPG micelles, same conditions as C99 titration",does not bind; also recorded: only minor perturbations of Notch resonances
same,binding to Notch-1 transmembrane domain,[1]; general statement,did not bind; also recorded: not to bind
same,change in C99 oligomeric state (IM-MS),"C99 [2]; LMPG and DDMB micelles, 0–50 μM verteporfin, low detergent conditions, n = 3",only a marginal increase in the population of dimeric C99; also recorded: does not undergo any significant change in oligomeric state
same,covalent modification of C99 (mass by IM-MS),C99 [2]; samples kept in the dark,no covalent modification
same,change in C99 oligomeric state (cross-linking),C99 [3],no change in oligomeric state; also recorded: no increase in higher-order C99 species
same,IC50,"[4]; 30 nM purified γ-secretase, C100-Flag, 16 h, 37 °C, n = 3, read-out: IC50, inhibition of AICD production",164 ± 45 µM
same,degree of inhibition of C99 cleavage at saturating verteporfin,[4]; 30 nM γ-secretase,approximately 75%
same,C100-Flag cleavage efficiency (Western blot),"[4]; 100 µM verteporfin, 2 µM C100-Flag, 1 nM γ-secretase, Fig. S6A",greatly reduced
same,IC50,"[4]; depending on assay conditions (1 nM to 30 nM enzyme), read-out: IC50 range for γ-secretase cleavage of C99",15 to 164 µM

# — article PMC8968665, “Verteporfin is a substrate-selective γ-secretase inhibitor that binds the amyloid precursor protein transmembrane domain” (The Journal of Biological Chemistry, 2022)
